Test results reported in ChEMBL document CHEMBL5584333, “Evo312: An Evodiamine Analog and Novel PKCβI Inhibitor with Potent Antitumor Activity in Gemcitabine-Resistant Pancreatic Cancer” (J Med Chem, 2024).

System: PANC-1
Assay: Cytotoxicity against human PANC-1 cells assessed as inhibition of cell growth incubated for 72 hrs by SRB assay
Format: functional, cell-based
Settings: PANC-1, 72 h

Going from `C#CCOc1ccc2[nH]c3c(c2c1)CCN1C(=O)c2ccccc2N(C)[C@H]31` to `COc1ccc2[nH]c3c(c2c1)CCN1C(=O)c2ccccc2N(C)[C@H]31`, the IC50 rises from 4 µM to 11.1 µM (2.8-fold). The first is the more potent here.

Going from `Cc1ccc(CN2c3ccccc3C(=O)N3CCc4c([nH]c5ccccc45)[C@H]32)cc1` to `O=C1c2ccccc2N(Cc2ccc(C(F)(F)F)cc2)[C@@H]2c3[nH]c4ccccc4c3CCN12`, the IC50 rises from 11.3 µM to 31.5 µM (2.8-fold).

Compared with `COc1cccc2c1C(=O)N1CCc3c([nH]c4ccccc34)[C@H]1N2C`, `COc1ccc2c(c1)C(=O)N1CCc3c([nH]c4ccccc34)[C@H]1N2C` is 12-fold lower in IC50: 12.6 µM for the first, 1.05 µM for the second.

`CN1c2ccccc2C(=O)N2CCc3c(n(C(=O)c4ccccc4)c4ccccc34)[C@H]21` and `CN1c2ccccc2C(=O)N2CCc3c(n(C)c4ccccc34)[C@H]21` cannot be ordered by IC50: over 50 µM for the first, over 50 µM for the second.

Compared with `CN1c2ccccc2C(=O)N2CCc3c([nH]c4ccc(F)cc34)[C@H]21`, `CN1c2ccccc2C(=O)N2CCc3c([nH]c4ccc(Cl)cc34)[C@H]21` is 3.4-fold higher in IC50: 9.32 µM for the first, 31.6 µM for the second. The first is the more potent here.

Going from `Cc1ccc2c(c1)C(=O)N1CCc3c([nH]c4ccccc34)[C@H]1N2C` to `Cc1ccc2[nH]c3c(c2c1)CCN1C(=O)c2ccccc2N(C)[C@H]31`, the IC50 rises from 2.02 µM to 29.2 µM (14-fold).

Going from `CCCCCCn1c2c(c3ccccc31)CCN1C(=O)c3ccccc3N(C)[C@H]21` to `CCCn1c2c(c3ccccc31)CCN1C(=O)c3ccccc3N(C)[C@H]21`, the IC50 rises from 13.7 µM to 38.4 µM (2.8-fold).

Going from `CN1c2ccccc2C(=O)N2CCc3c([nH]c4ccc(OCc5ccccc5)cc34)[C@H]21` to `CN1c2ccccc2C(=O)N2CCc3c([nH]c4ccc([N+](=O)[O-])cc34)[C@H]21`, the IC50 falls from 10.7 µM to 4.45 µM (2.4-fold). The second is the more potent here.

First: CN1c2ccccc2C(=O)N2CCc3c(n(Cc4ccc(Cl)cc4)c4ccccc34)[C@H]21
Second: CN1c2cc(Cl)ccc2C(=O)N2CCc3c([nH]c4ccccc34)[C@H]21
The IC50 of the first is lower: 44 µM for the first, over 50 µM for the second. The first is the more potent here.

Compared with `COc1cc([C@@H]2c3cc4c(cc3[C@@H](O[C@@H]3O[C@@H]5CO[C@@H](C)O[C@H]5[C@H](O)[C@H]3O)[C@H]3COC(=O)[C@H]23)OCO4)cc(OC)c1O` [ETOPOSIDE], `CN1c2ccc(Cl)cc2C(=O)N2CCc3c([nH]c4ccccc34)[C@H]21` is 14-fold lower in IC50: 18.3 µM for the first, 1.32 µM for the second.

Work on `O=C1c2ccccc2N[C@@H]2c3[nH]c4ccccc4c3CCN12` yielded an IC50 of over 50 µM.

System: not listed separately
Assay: Cytotoxicity against human MRC5 cells assessed as inhibition of cell growth incubated for 72 hrs by SRB assay
Format: toxicity, cell-based
Settings: not given

Going from `C#CCOc1ccc2[nH]c3c(c2c1)CCN1C(=O)c2ccccc2N(C)[C@H]31` to `COc1ccc2[nH]c3c(c2c1)CCN1C(=O)c2ccccc2N(C)[C@H]31`, the IC50 at 72 h falls from over 50 µM to 10.8 µM.

First: Cc1ccc(CN2c3ccccc3C(=O)N3CCc4c([nH]c5ccccc45)[C@H]32)cc1
Second: O=C1c2ccccc2N(Cc2ccc(C(F)(F)F)cc2)[C@@H]2c3[nH]c4ccccc4c3CCN12
The IC50 at 72 h of the first is higher: over 50 µM for the first, 50 µM for the second.

Compared with `COc1cccc2c1C(=O)N1CCc3c([nH]c4ccccc34)[C@H]1N2C`, `COc1ccc2c(c1)C(=O)N1CCc3c([nH]c4ccccc34)[C@H]1N2C` is 3.8-fold lower in IC50 at 72 h: 12.7 µM for the first, 3.33 µM for the second.

`CN1c2ccccc2C(=O)N2CCc3c(n(C(=O)c4ccccc4)c4ccccc34)[C@H]21` and `CN1c2ccccc2C(=O)N2CCc3c(n(C)c4ccccc34)[C@H]21` cannot be ordered by IC50 at 72 h: over 50 µM for the first, over 50 µM for the second.

Compared with `CN1c2ccccc2C(=O)N2CCc3c([nH]c4ccc(F)cc34)[C@H]21`, `CN1c2ccccc2C(=O)N2CCc3c([nH]c4ccc(Cl)cc34)[C@H]21` is 2-fold higher in IC50 at 72 h: 4.71 µM for the first, 9.42 µM for the second.

Compared with `Cc1ccc2c(c1)C(=O)N1CCc3c([nH]c4ccccc34)[C@H]1N2C`, `Cc1ccc2[nH]c3c(c2c1)CCN1C(=O)c2ccccc2N(C)[C@H]31` is higher in IC50 at 72 h: 7.36 µM for the first, over 50 µM for the second.

Compared with `CCCCCCn1c2c(c3ccccc31)CCN1C(=O)c3ccccc3N(C)[C@H]21`, `CCCn1c2c(c3ccccc31)CCN1C(=O)c3ccccc3N(C)[C@H]21` is higher in IC50 at 72 h: 37.6 µM for the first, over 50 µM for the second.

`CN1c2ccccc2C(=O)N2CCc3c([nH]c4ccc(OCc5ccccc5)cc34)[C@H]21` and `CN1c2ccccc2C(=O)N2CCc3c([nH]c4ccc([N+](=O)[O-])cc34)[C@H]21` cannot be ordered by IC50 at 72 h: over 50 µM for the first, over 50 µM for the second.

`CN1c2ccccc2C(=O)N2CCc3c(n(Cc4ccc(Cl)cc4)c4ccccc34)[C@H]21` and `CN1c2cc(Cl)ccc2C(=O)N2CCc3c([nH]c4ccccc34)[C@H]21` cannot be ordered by IC50 at 72 h: over 50 µM for the first, over 50 µM for the second.

First: COc1cc([C@@H]2c3cc4c(cc3[C@@H](O[C@@H]3O[C@@H]5CO[C@@H](C)O[C@H]5[C@H](O)[C@H]3O)[C@H]3COC(=O)[C@H]23)OCO4)cc(OC)c1O [ETOPOSIDE]
Second: CN1c2ccc(Cl)cc2C(=O)N2CCc3c([nH]c4ccccc34)[C@H]21
The IC50 at 72 h of the first is higher: over 20 µM for the first, 1.03 µM for the second.

Compound `O=C1c2ccccc2N[C@@H]2c3[nH]c4ccccc4c3CCN12` has an IC50 at 72 h of over 50 µM.
